In US20110190246A1, “ESTRATRIENE DERIVATIVES COMPRISING HETEROCYCLIC BIOISOSTERES FOR THE PHENOLIC A-RING” (Bayer Schering Pharma Aktiengesellschaft, priority 2008, published 2011):
Values belong to the compound of their own block, whether it stands above or below them.

Experiments:
[1] = test system: human cryopreserved hepatocytes; assay: Stability in hepatocytes; type: in vitro ADME; conditions: maximal theoretical bioavailability
Description: The metabolic stability of test compounds with respect to phase 1 and phase 2 metabolisms was investigated by incubation of the compounds with hepatocytes. These investigations were performed for characterisation of compounds in case of phase 2 metabolism is to be expected. […] After analytical workup the concentrations of the test compounds after different incubation periods were related to the initial concentration of the respective test compound (zero hour's time point). The resulting area under the concentration-time-curve of the test compound investigated in the assay is used to derive the respective Fmax value.

hepatic gene CaBP = assay: Induction of the hepatic gene CaBP (hepatic estrogenicity); type: in vivo; conditions: dose response curves, FIGS. 1-3
Text: Data regarding the uterine and hepatic activity of example 1 and example 4 in comparison to Ethinylestradiol are shown in FIGS. 1, 2, and 3. Dose response curves describing the increases in relative uterine weight (closed circles) and the induction of the hepatic gene CaBP (open circles) are shown for ethinylestradiol (FIG 1), example 1 (FIG. 2), and example 4 (FIG. 3). […] This may implicate that compounds of example 1 and 4 show lower hepatic estrogenicity if compared to Ethinylestradiol.

[2] = target: T1, estrogen receptor α (ERα) (Homo sapiens, UniProt P03372); assay: Binding to estrogen receptor α (competition with 3H-estradiol); conditions: KF = IC50 of test compound / IC50 of estradiol
T1 construct: made in house; host or cells: Hi5 insect cells (baculovirus)
Description: The ERα protein used in the binding assay was purified from cytosolic fractions of Hi5 cells transfected with recombinant bacuioviruses encoding either the human ERα. Aliquots of cytosolic fractions were stored at −80° C. and had protein concentrations of 5-7 mg/ml (as determined by the BCA method).
30 μl of cytosol were added leading to a final volume of 50 μl per well. […] The protein-bound radioactivity was measured by addition of 200 μl Microszint-40 (Canberra Packard) to each well using a TopCount scintillation counter.

ERα [3] = target: T2, ERα (Homo sapiens, UniProt P03372); assay: Transactivation assay in stably transfected MCF-7 cells (MVLN assay); type: cell-based; set-up: MCF-7 cells endogenously expressing ERα; endogenous in cells; host or cells: MCF-7 stably transfected with vitellogenin-tk-luciferase reporter (MVLN)
T2 sequence (P03372 1-595): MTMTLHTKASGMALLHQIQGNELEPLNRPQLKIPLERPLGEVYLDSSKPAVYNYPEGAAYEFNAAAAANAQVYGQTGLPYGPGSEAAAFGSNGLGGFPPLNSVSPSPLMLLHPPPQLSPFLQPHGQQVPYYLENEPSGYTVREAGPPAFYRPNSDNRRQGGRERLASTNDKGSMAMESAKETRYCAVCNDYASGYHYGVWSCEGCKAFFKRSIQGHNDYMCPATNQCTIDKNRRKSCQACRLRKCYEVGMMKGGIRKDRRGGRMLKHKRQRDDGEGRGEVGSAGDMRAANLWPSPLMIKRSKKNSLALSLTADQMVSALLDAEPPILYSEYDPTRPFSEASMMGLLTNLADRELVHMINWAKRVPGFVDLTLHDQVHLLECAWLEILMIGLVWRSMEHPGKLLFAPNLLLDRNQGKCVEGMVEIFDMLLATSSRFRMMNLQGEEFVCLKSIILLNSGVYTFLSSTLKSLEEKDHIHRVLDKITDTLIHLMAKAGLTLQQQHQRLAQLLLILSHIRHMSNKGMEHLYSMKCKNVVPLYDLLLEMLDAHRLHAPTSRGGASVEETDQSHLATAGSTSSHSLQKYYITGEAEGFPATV
Description: To analyse activation of the ERα by diverse tool compounds in a second cellular system, we used MCF-7 cells endogenously expressing ERα and stably transfected with the estrogen-responsive vitellogenin-tk-luciferase reporter plasmid. […]. Luciferase activity was measured after addition of 25 μl steady-Glo in a TopCount. Dose response curves were generated and EC50 values were calculated using Sigma plot.

ERα [4] = target: T3, ERα (Rattus norvegicus, UniProt P06211); assay: Stimulation of uterine growth in vivo in ovariectomized rats; set-up: species or system Wistar rats; conditions: for uterotrophic activity (increase in relative uterine weight): dose response curves, FIGS. 2-3
T3 construct: from tissue; host or cells: uterus of ovariectomized adult female Wistar rats (in vivo)
T3 sequence (P06211 1-600): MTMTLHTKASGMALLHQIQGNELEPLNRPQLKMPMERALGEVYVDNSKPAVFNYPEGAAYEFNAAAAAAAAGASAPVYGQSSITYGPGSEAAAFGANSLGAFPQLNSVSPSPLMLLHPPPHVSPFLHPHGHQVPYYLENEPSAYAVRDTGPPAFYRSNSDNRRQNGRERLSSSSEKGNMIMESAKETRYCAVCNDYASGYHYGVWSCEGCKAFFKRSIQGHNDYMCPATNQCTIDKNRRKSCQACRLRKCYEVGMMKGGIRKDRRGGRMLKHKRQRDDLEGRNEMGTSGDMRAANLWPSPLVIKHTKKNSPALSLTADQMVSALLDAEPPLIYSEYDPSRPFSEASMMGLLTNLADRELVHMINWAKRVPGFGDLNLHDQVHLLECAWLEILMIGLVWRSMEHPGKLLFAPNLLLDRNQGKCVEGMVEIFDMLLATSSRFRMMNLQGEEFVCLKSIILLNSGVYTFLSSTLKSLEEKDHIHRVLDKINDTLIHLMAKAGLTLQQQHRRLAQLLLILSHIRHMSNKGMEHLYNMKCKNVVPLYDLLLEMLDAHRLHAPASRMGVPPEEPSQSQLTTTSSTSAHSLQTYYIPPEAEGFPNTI

ERα [5] = target: T2, ERα; assay: Transactivation assay in U2OS cells; type: cell-based; conditions: U2OS cells transiently transfected with ERα and luciferase reporter, 24 hours
ERα [6] = target: T2, ERα; assay: Induction of alkaline phosphatase in human endometrial Ishikawa cells; type: cell-based; conditions: 72 hours, read-out: EC50 Alkaline phoshatase induction, Ishikawa cells
Description: Alkaline phosphatase is an estrogen target gene in the normal uterine epithelium as well as in endometrial-derived cancer cells, such as Ishikawa cells. […]. Ishikawa cells (from European collection of cell cultures) were maintained in phenolred-free MEM with 5% FCS, 4 mM glutamine, 1% non, essential amino acids and 100 U/ml penicillin and 100 μg/ml streptomycin. […]. On the third day, the media were removed; cells were washed two times with 50 μl PBS and then frozen at −80° C. for 20 min. After thawing at room temperature for 10 min, cells were incubated with 100 μl of 1-Step PNPP reagent (Pierce) and incubated for 1.5 h at room temperature. OD was measured at 405 nm sing a Polarstar Optima. Dose response curves were generated using and ED50 values were calculated using Sigma plot.

[7] = luciferase reporter, Table 2, read-out: MVLN-Transactivation (EC50 in nM)

Fmax (calculated from hepatocyte stability) [1]: 17%
Compound: C[C@]12CC[C@@H]3c4ccc(O)cc4CC[C@H]3[C@@H]1CC[C@@H]2O [Estradiol, reference compound]

induction of the hepatic gene CaBP (hepatic gene CaBP): significant induction of CaBP
Compound: C#C[C@]1(O)CC[C@H]2[C@@H]3CCc4cc(O)ccc4[C@H]3CC[C@@]21C [Ethinylestradiol, reference compound]

Compound: C[C@]12CCC3c4ccc5[nH]ncc5c4CCC3C1CC[C@@H]2O (stereo partly drawn) [Example 1, 2′H-Pyrazolo[3′,4′:3,4]estra-1,3,5(10)-trien-17β-ol]
Fmax (calculated from hepatocyte stability) [1]: 34% | ERα binding [KF] [2]: 1.6 | induction of the hepatic gene CaBP (hepatic gene CaBP): do not stimulate this hepatic gene | EC50 (ERα [3]; [7]): 1.41 nM | EC50 (ERα [3]; vitellogenin-tk-luciferase reporter, 24 hours, Table 1, read-out: EC50 ERα transactivation, MVLN assay): 1.42 nM | uterotrophic activity (increase in relative uterine weight) (ERα [4]): full uterotrophic activity | ED50 Uterine growth (ERα [4]; ovariectomized Wistar rats, subcutaneously daily for 14 days, relative uterine weight): 8.25 μg/kg bodyweight | EC50 (ERα [5]): 0.082 nM | EC50 (ERα [6]): 0.759 nM

EC50 (ERα [3]; [7]): 12.6 nM
Compound: C[C@]12CCC3c4ccc5[nH]ncc5c4CCC3C1CCC2=O (some centres unmarked) [Example 2, 2′H-Pyrazolo[3′,4′:3,4]estra-1,3,5(10)-trien-17-one]

EC50 (ERα [3]; [7]): 3.53 nM
Compound: C[C@]1(O)CCC2C3CCc4c(ccc5[nH]ncc45)C3CC[C@@]21C (stereo partly drawn) [Example 3, 17α-Methyl-2′H-pyrazolo[3′,4′:3,4]estra-1,3,5(10)-trien-17β-ol]

Compound: C#C[C@]1(O)CCC2C3CCc4c(ccc5[nH]ncc45)C3CC[C@@]21C (stereo partly drawn) [Example 4, 17α-Ethinyl-2′H-pyrazolo[3′,4′:3,4]estra-1,3,5(10)-trien-17β-ol]
induction of the hepatic gene CaBP (hepatic gene CaBP): do not stimulate this hepatic gene | EC50 (ERα [3]; [7]): 1.01 nM | uterotrophic activity (increase in relative uterine weight) (ERα [4]): full uterotrophic activity

EC50 (ERα [3]; [7]): 3.72 nM
Compound: C=C[C@]1(O)CCC2C3CCc4c(ccc5[nH]ncc45)C3CC[C@@]21C (stereo partly drawn) [Example 5, 17α-Vinyl-2′H-pyrazolo[3′,4′:3,4]estra-1,3,5(10)-trien-17β-ol]

EC50 (ERα [3]; [7]): 130 nM
Compound: CC[C@]1(O)CCC2C3CCc4c(ccc5[nH]ncc45)C3CC[C@@]21C (stereo partly drawn) [Example 6, 17α-Ethyl-2′H-pyrazolo[3′,4′:3,4]estra-1,3,5(10)-trien-17β-ol]

EC50 (ERα [3]; [7]): 82.6 nM
Compound: C=CC[C@]1(O)CCC2C3CCc4c(ccc5[nH]ncc45)C3CC[C@@]21C (stereo partly drawn) [Example 7, 17α-Allyl-2′H-pyrazolo[3′,4′:3,4]estra-1,3,5(10)-trien-17β-ol]

EC50 (ERα [3]; [7]): 16.5 nM
Compound: CC#C[C@]1(O)CCC2C3CCc4c(ccc5[nH]ncc45)C3CC[C@@]21C (stereo partly drawn) [Example 8, 17α-(Prop-1-inyl)-2′H-pyrazolo[3′,4′:3,4]estra-1,3,5(10)-trien-17β-ol]

EC50 (ERα [3]; [7]): 77.3 nM
Compound: C[C@]12CCC3c4ccc5[nH]ncc5c4CCC3C1CC[C@@]2(O)C(F)(F)F (stereo partly drawn) [Example 9, 17α-Trifluoromethyl-2′H-pyrazolo[3′,4′:3,4]estra-1,3,5(10)-trien-17β-ol]

EC50 (ERα [3]; [7]): 270 nM
Compound: C[C@]12CCC3c4ccc5[nH]ncc5c4CCC3C1CC[C@@]2(O)C(F)(F)C(F)(F)F (stereo partly drawn) [Example 10, 17α-Pentafluoroethyl-2′H-pyrazolo[3′,4′:3,4]estra-1,3,5(10)-trien-17β-ol]

EC50 (ERα [3]; [7]): 308 nM
Compound: C[C@]12CCC3c4ccc5[nH]nnc5c4CCC3C1CCC2=O (some centres unmarked) [Example 11, 3′H-Triazolo[4′,5′:3,4]estra-1,3,5(10)-trien-17-on]
